Values belong to the compound of their own block, whether it stands above or below them.
Experiments:
human factor XIa = human factor XIa (Homo sapiens (Human), UniProt P03951); assay: Measurement of FXIa inhibition (fluorogenic peptide substrate); assay type: biochemical; settings: factor XIa from Kordia, substrate Boc-Glu(OBzl)-Ala-Arg-AMC, 22° C., 30 min
Experimental: (§1) The factor XIa inhibition of the substances according to the invention is determined using a biochemical test system which utilizes the reaction of a peptidic factor XIa substrate to determine the enzymatic activity of human factor XIa. Here, factor XIa cleaves from the peptic factor XIa substrate the C-terminal aminomethylcoumarin (AMC), the fluorescence of which is measured. The determinations are carried out in microtitre plates.
1 μl of the diluted substance solutions is placed into each of the wells of white microtitre plates from Greiner (384 wells). […] After […] of incubation, the enzyme reaction is started by addition of 20 μl of the factor XIa substrate Boc-Glu(OBz1)-Ala-Arg-AMC dissolved in assay buffer (10 μM in assay buffer) from Bachem, the mixture is incubated at room temperature (22° C.) for 30 min and fluorescence is then measured (excitation: 360 nm, emission: 460 nm). The measured emissions of the test batches with test substance are compared to those of control batches without test substance (only dimethyl sulphoxide instead of test substance in dimethyl sulphoxide), and IC50 values are calculated from the concentration/activity relationships.

human plasma kallikrein = human plasma kallikrein (Homo sapiens (Human), UniProt P03952); assay: Determination of the plasma kallikrein activity (fluorogenic peptide substrate); assay type: biochemical; settings: plasma kallikrein from Kordia, substrate H-Pro-Phe-Arg-AMC, 22° C.
Chain of human plasma kallikrein (P03952 whole entry, looked up): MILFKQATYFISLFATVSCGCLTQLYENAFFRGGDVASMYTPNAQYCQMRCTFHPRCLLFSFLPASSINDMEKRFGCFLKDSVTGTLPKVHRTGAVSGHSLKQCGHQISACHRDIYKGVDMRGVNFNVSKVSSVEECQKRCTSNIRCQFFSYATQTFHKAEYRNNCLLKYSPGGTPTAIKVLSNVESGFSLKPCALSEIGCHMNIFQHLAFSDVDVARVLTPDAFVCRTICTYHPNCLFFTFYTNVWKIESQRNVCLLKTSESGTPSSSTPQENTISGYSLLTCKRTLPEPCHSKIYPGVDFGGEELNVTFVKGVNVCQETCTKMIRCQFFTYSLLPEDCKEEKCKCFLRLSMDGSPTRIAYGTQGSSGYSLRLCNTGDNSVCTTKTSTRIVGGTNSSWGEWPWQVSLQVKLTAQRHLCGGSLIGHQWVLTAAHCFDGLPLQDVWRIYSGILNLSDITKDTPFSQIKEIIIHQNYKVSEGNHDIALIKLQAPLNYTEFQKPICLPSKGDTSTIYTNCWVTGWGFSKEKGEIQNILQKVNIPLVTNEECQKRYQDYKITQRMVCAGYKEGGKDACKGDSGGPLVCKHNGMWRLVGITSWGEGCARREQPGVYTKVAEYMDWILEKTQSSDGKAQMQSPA
Chain of human plasma kallikrein (P03952 whole entry partner, looked up): as the sequence (P03952 whole entry, looked up) above
Experimental: as §1, with “To determine the plasma kallikrein” for “The factor XIa”, “invention,” for “invention is determined using”, “system is used” for “system”, “plasma kallikrein” for “factor XIa”, “plasma kallikrein.” for “factor XIa.”
Test substances are dissolved in dimethyl sulphoxide and serially diluted in dimethyl sulphoxide (3000 μM to 0.0078 μM; resulting final concentrations in the test: 50 μM to 0.00013 μM). 1 μl of the diluted substance solutions is placed into each of the wells of white microtitre plates from Greiner (384 wells). 20 μl of assay buffer (50 mM Tris/HCl pH 7.4; 100 mM sodium chloride solution; 5 mM calcium chloride solution; 0.1% of bovine serum albumin) and 20 μl of plasma kallikrein from Kordia (0.6 nM in assay buffer) are then added successively. After […] of incubation, the enzyme reaction is started by addition of 20 μl of the substrate H-Pro-Phe-Arg-AMC dissolved in assay buffer (10 μM in assay buffer) from Bachem, the mixture is incubated at room temperature (22° C.) for […] and fluorescence is then measured (excitation: 360 nm, emission: 460 nm). The measured emissions of the test batches with test substance are compared to those of control batches without test substance (only dimethyl sulphoxide instead of test substance in dimethyl sulphoxide), and IC50 values are calculated from the concentration/activity relationships.

Chain of human factor XIa (P03951 whole entry, looked up): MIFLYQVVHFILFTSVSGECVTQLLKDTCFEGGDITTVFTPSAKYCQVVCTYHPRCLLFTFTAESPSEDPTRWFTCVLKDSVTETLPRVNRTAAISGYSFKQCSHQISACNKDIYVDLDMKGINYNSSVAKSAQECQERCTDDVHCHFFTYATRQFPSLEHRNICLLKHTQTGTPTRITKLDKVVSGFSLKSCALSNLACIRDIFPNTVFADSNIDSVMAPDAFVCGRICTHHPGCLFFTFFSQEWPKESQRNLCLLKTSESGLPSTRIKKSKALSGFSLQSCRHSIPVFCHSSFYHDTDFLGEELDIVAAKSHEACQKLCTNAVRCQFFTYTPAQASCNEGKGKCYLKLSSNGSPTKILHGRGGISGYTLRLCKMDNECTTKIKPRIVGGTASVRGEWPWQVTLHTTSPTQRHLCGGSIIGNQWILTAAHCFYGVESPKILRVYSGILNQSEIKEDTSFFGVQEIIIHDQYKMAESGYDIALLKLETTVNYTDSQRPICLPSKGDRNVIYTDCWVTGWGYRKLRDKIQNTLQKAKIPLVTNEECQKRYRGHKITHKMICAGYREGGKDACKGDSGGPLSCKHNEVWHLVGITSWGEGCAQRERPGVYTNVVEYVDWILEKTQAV
Chain of human factor XIa (P03951 whole entry partner, looked up): as the sequence (P03951 whole entry, looked up) above

SMILES: COc1cn(C(C[C@@H]2CCCCO2)C(=O)Nc2ccc(C(=O)OC(C)[C@H](N)C(=O)O)cc2)c(=O)cc1-c1cc(Cl)ccc1C#N (single isomer, unassigned) [Example 1]
- IC50 (human factor XIa): 2 nM
- IC50 (human plasma kallikrein): 9.1 nM

SMILES: CCC(C(=O)Nc1ccc(C(=O)OC(C)[C@H](N)C(=O)O)cc1)n1cc(OC)c(-c2cc(Cl)ccc2C#N)cc1=O (single isomer, unassigned) [Example 2, O-[4-({2-[4-(5-Chloro-2-cyanophenyl)-5-methoxy-2-oxopyridin-1(2H)-yl]butanoyl}amino)-benzoyl]-L-threonine]
- IC50 (human factor XIa): 54 nM
- IC50 (human plasma kallikrein): 93 nM

SMILES: CCC(C(=O)Nc1ccc(C(=O)OC[C@](C)(N)C(=O)O)cc1)n1cc(OC)c(-c2cc(Cl)ccc2C#N)cc1=O (single isomer, unassigned) [Example 3, O-[4-({2-[4-(5-Chloro-2-cyanophenyl)-5-methoxy-2-oxopyridin-1(2H)-yl]butanoyl}amino)-benzoyl]-2-methyl-L-serine]
- IC50 (human factor XIa): 82 nM
- IC50 (human plasma kallikrein): 60 nM

SMILES: CCC(C(=O)Nc1ccc(C(=O)OC[C@H](N)C(=O)O)cc1)n1cc(OC)c(-c2cc(Cl)ccc2C#N)cc1=O (single isomer, unassigned) [Example 4, O-[4-({2-[4-(5-Chloro-2-cyanophenyl)-5-methoxy-2-oxopyridin-1(2H)-yl]butanoyl}amino)-benzoyl]-L-serine]
- IC50 (human factor XIa): 54 nM
- IC50 (human plasma kallikrein): 92 nM

SMILES: CCC(C(=O)Nc1ccc(C(=O)OC[C@H](NC(=O)CN2CCCC2)C(=O)O)cc1)n1cc(OC)c(-c2cc(Cl)ccc2C#N)cc1=O (single isomer, unassigned) [Example 5, O-[4-({2-[4-(5-Chloro-2-cyanophenyl)-5-methoxy-2-oxopyridin-1(2H)-yl]butanoyl}amino)-benzoyl]-N-(pyrrolidin-1-ylacetyl)-L-serine]
- IC50 (human factor XIa): 60 nM
- IC50 (human plasma kallikrein): 35 nM

SMILES: CCC(C(=O)Nc1ccc(C(=O)OC[C@H](NC(=O)C2CCCCN2C)C(=O)O)cc1)n1cc(OC)c(-c2cc(Cl)ccc2C#N)cc1=O (single isomer, unassigned) [Example 7]
- IC50 (human factor XIa): 91 nM
- IC50 (human plasma kallikrein): 52 nM

SMILES: CCC(C(=O)Nc1ccc(C(=O)OC[C@H](NC(=O)C2(N(C)C)CC2)C(=O)O)cc1)n1cc(OC)c(-c2cc(Cl)ccc2C#N)cc1=O (single isomer, unassigned) [Example 8, O-[4-({2-[4-(5-Chloro-2-cyanophenyl)-5-methoxy-2-oxopyridin-1(2H)-yl]butanoyl}amino)-benzoyl]-N-{[1-(dimethylamino)cyclopropyl]carbonyl}-L-serine]
- IC50 (human factor XIa): 110 nM
- IC50 (human plasma kallikrein): 55 nM

SMILES: CCC(C(=O)Nc1ccc(C(=O)OC[C@H](NC(=O)[C@H](C(C)C)N(C)C)C(=O)O)cc1)n1cc(OC)c(-c2cc(Cl)ccc2C#N)cc1=O (single isomer, unassigned) [Example 9, N,N-Dimethyl-L-valyl-O-[4-({2-[4-(5-chloro-2-cyanophenyl)-5-methoxy-2-oxopyridin-1(2H)-yl]butanoyl}amino)benzoyl]-L-serine]
- IC50 (human factor XIa): 63 nM
- IC50 (human plasma kallikrein): 51 nM

SMILES: CCC(C(=O)Nc1ccc(C(=O)O[C@H]2CCN[C@@H]2C(=O)O)cc1)n1cc(OC)c(-c2cc(Cl)ccc2C#N)cc1=O (single isomer, unassigned) [Example 10]
- IC50 (human factor XIa): 14 nM
- IC50 (human plasma kallikrein): 91 nM

SMILES: CCC(C(=O)Nc1ccc(C(=O)O[C@H]2CN[C@@H](C(=O)O)C2)cc1)n1cc(OC)c(-c2cc(Cl)ccc2C#N)cc1=O (single isomer, unassigned) [Example 11]
- IC50 (human factor XIa): 260 nM
- IC50 (human plasma kallikrein): 280 nM

SMILES: CCC(C(=O)Nc1ccc(C(=O)OC[C@@H](C(=O)O)N2CCCC2)cc1)n1cc(OC)c(-c2cc(Cl)ccc2C#N)cc1=O (single isomer, unassigned) [Example 12]
- IC50 (human factor XIa): 26 nM
- IC50 (human plasma kallikrein): 43 nM

SMILES: CCC(C(=O)Nc1ccc(C(=O)OC2CCN(C)CC2)cc1)n1cc(OC)c(-c2cc(Cl)ccc2C#N)cc1=O (single isomer, unassigned) [Example 13, 1-Methylpiperidin-4-yl 4-({2-[4-(5-chloro-2-cyanophenyl)-5-methoxy-2-oxopyridin-1(2H)-yl]butanoyl}amino)benzoate]
- IC50 (human factor XIa): 230 nM
- IC50 (human plasma kallikrein): 120 nM

- IC50 (human plasma kallikrein): 38 nM
SMILES: CCC(C(=O)Nc1ccc(C(=O)OCCN2CCN(C)CC2)cc1)n1cc(OC)c(-c2cc(Cl)ccc2C#N)cc1=O (single isomer, unassigned) [Example 14, 2-(4-Methylpiperazin-1-yl)ethyl 4-({2-[4-(5-chloro-2-cyanophenyl)-5-methoxy-2-oxopyridin-1(2H)-yl]butanoyl}amino)benzoate]

SMILES: CCC(C(=O)Nc1ccc(C(=O)OCCC2CCNCC2)cc1)n1cc(OC)c(-c2cc(Cl)ccc2C#N)cc1=O (single isomer, unassigned) [Example 15, 2-(Piperidin-4-yl)ethyl 4-({2-[4-(5-chloro-2-cyanophenyl)-5-methoxy-2-oxopyridin-1(2H)-yl]butanoyl}amino)benzoate]
- IC50 (human factor XIa): 230 nM
- IC50 (human plasma kallikrein): 44 nM

- IC50 (human plasma kallikrein): 40 nM
SMILES: CCC(C(=O)Nc1ccc(C(=O)OCCN2CCCC2)cc1)n1cc(OC)c(-c2cc(Cl)ccc2C#N)cc1=O (single isomer, unassigned) [Example 16, 2-(Pyrrolidin-1-yl)ethyl 4-({2-[4-(5-chloro-2-cyanophenyl)-5-methoxy-2-oxopyridin-1(2H)-yl]butanoyl}amino)benzoate]

SMILES: CCC(C(=O)Nc1ccc(C(=O)OC[C@H](NC(=O)[C@@H]2CCCN2)C(=O)O)cc1)n1cc(OC)c(-c2cc(Cl)ccc2C#N)cc1=O (stereo partly drawn) [Example 6, Prolyl-O-[4-({2-[4-(5-chloro-2-cyanophenyl)-5-methoxy-2-oxopyridin-1(2H)-yl]butanoyl}amino)-benzoyl]-L-serine]
- IC50 (human factor XIa): 65 nM
- IC50 (human plasma kallikrein): 44 nM

— patent publication US10414731B2, “Substituted oxopyridine derivatives” (priority 2014, dated 2019)
